Holding throughout (type): functional
One experiment relates to Panicum virgatum. The experiment can be described thus: Herbicidal activity against Switch grass (Panicum virgatum L.) as the dose required for 50% control.
The test system of a further experiment is Echinochloa crus-galli. Briefly: Herbicidal activity against barnyard grass (Echinochloa crusgalli L. Beauv.) as the dose required for 50% control.
Another experiment concerns Setaria viridis. Briefly: Herbicidal activity against green foxtail (Setaria viridis L. Beauv.) as the dose required for 50% control.

On to `CC(C)c1ccc(CS(=O)(=O)c2cccc[n+]2[O-])cc1`, for which the -Log ED50 in the experiment on Panicum virgatum was 0.62 M acre-1; in the experiment with Echinochloa crus-galli it was -0.1 M acre-1; in the experiment with Setaria viridis, -0.1 M acre-1.
For the molecule `CC(c1cc(F)ccc1F)S(=O)(=O)c1cccc[n+]1[O-]` (centres undefined), the -Log ED50 with Panicum virgatum worked out at 1.22 M acre-1; in the experiment with Echinochloa crus-galli it was 1.22 M acre-1; with Setaria viridis, 1.17 M acre-1.
Consider `CC(C)c1ccc(C(C)C)c(C(C)S(=O)(=O)c2cccc[n+]2[O-])c1` (centres undefined), for which the -Log ED50 in the experiment with Panicum virgatum came to 0.19 M acre-1; with Echinochloa crus-galli, 0.78 M acre-1; in the experiment with Setaria viridis, 0.19 M acre-1.
`O=S(=O)(Cc1ccccc1F)c1cccc[n+]1[O-]`: the -Log ED50 in the experiment with Panicum virgatum is 0.77 M acre-1; in the experiment on Echinochloa crus-galli, 0.37 M acre-1; in the experiment with Setaria viridis, 0.07 M acre-1.
The corresponding values for `CC(c1c(F)cccc1Cl)S(=O)(=O)c1cccc[n+]1[O-]` (centres undefined) are 1.65 M acre-1, 1.35 M acre-1 and 1.35 M acre-1.
Consider `O=S(=O)(Cc1ccccc1I)c1cccc[n+]1[O-]`, for which the -Log ED50 with Panicum virgatum came out at 0.32 M acre-1; in the experiment on Echinochloa crus-galli, 0.52 M acre-1; in the experiment with Setaria viridis, 0.22 M acre-1.
For the molecule `N#Cc1ccccc1CS(=O)(=O)c1cccc[n+]1[O-]`, the -Log ED50 in the experiment on Panicum virgatum was -0.22 M acre-1; in the experiment on Echinochloa crus-galli it was 0.18 M acre-1; in the experiment on Setaria viridis, -0.01 M acre-1.
In the case of `Cc1ccc(C)c(CS(=O)(=O)c2cccc[n+]2[O-])c1`, the figures for the -Log ED50 in the experiment on Panicum virgatum, with Echinochloa crus-galli and in the experiment on Setaria viridis were 0.99 M acre-1, 1.09 M acre-1 and 0.39 M acre-1, respectively.
Regarding `Cc1ccc(C)c(CS(=O)(=O)c2cccc[n+]2[O-])c1C`, the -Log ED50 with Panicum virgatum, in the experiment on Echinochloa crus-galli and with Setaria viridis was 0.7 M acre-1 in each case.
With `Cc1ccc(C(F)(F)F)cc1C(C)S(=O)(=O)c1cccc[n+]1[O-]` (centres undefined), the -Log ED50 with Panicum virgatum stood at 1.09 M acre-1; with Echinochloa crus-galli, 0.79 M acre-1; in the experiment with Setaria viridis, 1.09 M acre-1.
Turning to `CC(c1cc(Cl)ccc1Cl)S(=O)(=O)c1cccc[n+]1[O-]` (centres undefined), the -Log ED50 was 1.07 M acre-1 in the experiment with Panicum virgatum, 1.07 M acre-1 with Echinochloa crus-galli and 0.86 M acre-1 in the experiment on Setaria viridis.
For the molecule `Cc1ccccc1C(C)S(=O)(=O)c1cccc[n+]1[O-]` (centres undefined), the -Log ED50 in the experiment with Panicum virgatum was found to be 1.29 M acre-1; with Echinochloa crus-galli it was 1.58 M acre-1; in the experiment with Setaria viridis, 1.29 M acre-1.
Take `Cc1ccc(Cl)c(C(C)S(=O)(=O)c2cccc[n+]2[O-])c1` (centres undefined): the -Log ED50 in the experiment with Panicum virgatum was found to be 0.82 M acre-1; in the experiment with Echinochloa crus-galli, 1.35 M acre-1; in the experiment with Setaria viridis it was 0.66 M acre-1.
The corresponding values for `O=S(=O)(Cc1ccc(-c2ccccc2)cc1)c1cccc[n+]1[O-]` are -0.19 M acre-1, -0.69 M acre-1 and -0.54 M acre-1.
On to `Cc1cc(Cl)ccc1C(C)S(=O)(=O)c1cccc[n+]1[O-]` (centres undefined), for which the values for the -Log ED50 with Panicum virgatum, in the experiment on Echinochloa crus-galli and in the experiment with Setaria viridis were 0.98 M acre-1, 0.84 M acre-1 and 0.79 M acre-1, respectively.
As for `O=S(=O)(Cc1ccccc1)c1cccc[n+]1[O-]`, the -Log ED50 in the experiment on Panicum virgatum worked out at 0.04 M acre-1; in the experiment with Echinochloa crus-galli, 0.29 M acre-1; in the experiment on Setaria viridis, 0.14 M acre-1.
The corresponding values for `Cc1ccc(C(C)C)cc1C(C)S(=O)(=O)c1cccc[n+]1[O-]` (centres undefined) are 0.7 M acre-1, 0.89 M acre-1 and 0.57 M acre-1.
As for `CC(c1cccc(C(F)(F)F)c1)S(=O)(=O)c1cccc[n+]1[O-]` (centres undefined), the -Log ED50 with Panicum virgatum is 1.37 M acre-1; with Echinochloa crus-galli, 0.46 M acre-1; in the experiment on Setaria viridis it was 0.77 M acre-1.
For `CC(c1cc(C(F)(F)F)ccc1Cl)S(=O)(=O)c1cccc[n+]1[O-]` (centres undefined), the -Log ED50 in the experiment on Panicum virgatum was determined as 1.26 M acre-1; in the experiment on Echinochloa crus-galli, 0.91 M acre-1; in the experiment with Setaria viridis it was 0.63 M acre-1.
Consider `COc1ccc(C)cc1CS(=O)(=O)c1cccc[n+]1[O-]`, for which the results for the -Log ED50 in the experiment with Panicum virgatum, with Echinochloa crus-galli and with Setaria viridis were 0.73 M acre-1, 1.02 M acre-1 and 0.41 M acre-1, respectively.
The corresponding values for `CC(C)c1ccc(C(C)C)c(CS(=O)(=O)c2cccc[n+]2[O-])c1` are -0.02 M acre-1, -0.02 M acre-1 and -0.02 M acre-1.
The corresponding values for `CC(c1ccc([N+](=O)[O-])cc1)S(=O)(=O)c1cccc[n+]1[O-]` (centres undefined) are 0.43 M acre-1, 0.43 M acre-1 and 0.23 M acre-1.
The corresponding values for `O=S(=O)(Cc1ccccc1Cl)c1cccc[n+]1[O-]` are 0.4 M acre-1, 0.85 M acre-1 and 0.43 M acre-1.
Turning to `Cc1c(Cl)ccc(C(C)S(=O)(=O)c2cccc[n+]2[O-])c1Cl` (centres undefined), the -Log ED50 in the experiment on Panicum virgatum was 1 M acre-1; with Echinochloa crus-galli it was 0.68 M acre-1; in the experiment on Setaria viridis, 0.89 M acre-1.
The corresponding values for `COc1ccc(Br)c(CS(=O)(=O)c2cccc[n+]2[O-])c1` are 0.95 M acre-1, 0.6 M acre-1 and 0.5 M acre-1.
For `Cc1ccc(C(C)S(=O)(=O)c2cccc[n+]2[O-])cc1C` (centres undefined), the -Log ED50 in the experiment on Panicum virgatum is 1.24 M acre-1; in the experiment on Echinochloa crus-galli, 1.31 M acre-1; in the experiment with Setaria viridis, 1.07 M acre-1.
As for `O=S(=O)(Cc1ccccc1Oc1ccccc1)c1cccc[n+]1[O-]`, the -Log ED50 in the experiment on Panicum virgatum is 0.11 M acre-1; in the experiment on Echinochloa crus-galli, -0.12 M acre-1; with Setaria viridis it was -0.03 M acre-1.
`COc1cc(CS(=O)(=O)c2cccc[n+]2[O-])cc(OC)c1OC`: the -Log ED50 in the experiment with Panicum virgatum was -0.77 M acre-1; in the experiment with Echinochloa crus-galli, -0.77 M acre-1; with Setaria viridis it was -0.79 M acre-1.
With `Cc1ccc(C)c(C(C)S(=O)(=O)c2cccc[n+]2[O-])c1` (centres undefined), the -Log ED50 stood at 1.25 M acre-1 with Panicum virgatum, 1.3 M acre-1 with Echinochloa crus-galli and 1.25 M acre-1 with Setaria viridis.
Take `CCCCOc1cccc(CS(=O)(=O)c2cccc[n+]2[O-])c1`: the figures for the -Log ED50 with Panicum virgatum, in the experiment on Echinochloa crus-galli and in the experiment on Setaria viridis were -0.15 M acre-1, 0.15 M acre-1 and -0.15 M acre-1, respectively.
Take `COc1ccc(CS(=O)(=O)c2cccc[n+]2[O-])cc1OC`: the -Log ED50 in the experiment on Panicum virgatum is 0.23 M acre-1; with Echinochloa crus-galli, 0.13 M acre-1; with Setaria viridis it was -0.01 M acre-1.
The corresponding values for `O=S(=O)(Cc1c(Cl)ccc(Cl)c1Cl)c1cccc[n+]1[O-]` are 0.81 M acre-1, 0.81 M acre-1 and 0.49 M acre-1.
`CC(c1cccc(Cl)c1F)S(=O)(=O)c1cccc[n+]1[O-]` (centres undefined): the -Log ED50 was 1.24 M acre-1 in the experiment on Panicum virgatum, 1.36 M acre-1 in the experiment on Echinochloa crus-galli and 1.05 M acre-1 in the experiment on Setaria viridis.
The corresponding values for `CCc1ccc(CC)c(C(C)S(=O)(=O)c2cccc[n+]2[O-])c1` (centres undefined) are 1.15 M acre-1, 1.15 M acre-1 and 1.05 M acre-1.
Consider `CC(c1ccc(Cl)cc1)S(=O)(=O)c1cccc[n+]1[O-]` (centres undefined), for which the -Log ED50 was determined as 1.14 M acre-1 with Panicum virgatum, 0.9 M acre-1 with Echinochloa crus-galli and 0.82 M acre-1 with Setaria viridis.
The corresponding values for `CC(c1ccc(S(C)(=O)=O)cc1)S(=O)(=O)c1cccc[n+]1[O-]` (centres undefined) are -0.35 M acre-1, -0.43 M acre-1 and -0.43 M acre-1.
The corresponding values for `O=S(=O)(Cc1cccc(Br)c1)c1cccc[n+]1[O-]` are 0.03 M acre-1, 0.16 M acre-1 and -0.14 M acre-1.
The corresponding values for `O=S(=O)(Cc1c(Cl)cccc1Cl)c1cccc[n+]1[O-]` are 0.74 M acre-1, 0.96 M acre-1 and 0.74 M acre-1.

Source of the values: ChEMBL document CHEMBL1122355, “Quantitative structure-activity relationships for 2-[(phenylmethyl)sulfonyl]pyridine 1-oxide herbicides” (1983).
